Source: patent publication US20220009920A1 (GB005, Inc., priority 2020, published 2022)
Like-named read-outs stand apart in the source and are kept apart here.

Assays:
[1] = Plasma and total brain concentrations at 1 h post single oral administration to female C57BL/6 mice; format: in vivo; conditions: mouse, 10 mg/kg oral gavage; for Kp at 1 h: brain/plasma, read-out: brain to plasma ratio
Protocol: The appropriate amount of test article was dissolved 10% dimethylacetamide (DMA)/90% (20% hydroxypropyl-β-cyclodextrin (HP-B-CD) w/v in water to obtain a final concentration of 1 mg/mL for oral dosing. Sonication, vortex, and homogenization was used as needed. Three female C57BL/6 mice aged 7-9 weeks (20-30 grams) were dosed by oral gavage 10 mg/kg solution of the test article.
Concentrations of test compounds in the plasma and brain samples (use plasma and brain homogenate standard curve for all samples appropriately) were analyzed using LC-MS/MS. Compounds having a brain-to-plasma ratio of greater than 0.2 were considered brain penetrant.

[2] = target: T1, BTK (Homo sapiens, UniProt Q06187); assay: Assay to determine activity against BTK; format: biochemical; conditions: 1 mM ATP, 2 nM BTK, 90 minutes at room temperature
T1 construct: purchased Cama
Protocol: Solutions of compounds (test or control) in DMSO were prepared at the desired concentrations, and serially diluted to 11 concentrations by 3-fold dilution in 384pp-plate using TECAN EVO200. 20 nL of stock were transferred to 384 plate using Echo550. DMSO was used as vehicle control.
(BTK was obtained from Cama; FLPeptide2 was obtained from PerkinElmer and Ibrutinib was obtained from Selleck.) 5 μL of ATP solution were added to each well, followed by addition of 15 μL of BTK solution to initiate the reaction. (Note the final volume of each well was 20 μL containing MgCl2 (10 mM), Brij-35 (0.01%), DTT (2 mM), BSA (0.05%), EGTA (1 mM), HEPE (pH7.5) (50 mM), FLPeptide (1.5 uM), ATP (1 mM) and BTK (2 nM).
The plates were incubated at room temperature for 90 minutes and then stopping buffer added (75 μL, containing 0.5 M EDTA) to terminate the reaction. Samples from each well were analyzed using EZ reader. The % remaining activity was calculated using read conversion ratio (CR) according to the equation: […]
XLFit (equation 201) was used to calculate IC50's by floating both bottom and top.

[3] = tested on: BTK in RAMOS B cells; assay: Assay to determine BTK activity in RAMOS B cells (anti-IgM, FLIPR Calcium 6); format: cell-based; conditions: anti-IgM EC80, calcium readout
Protocol: On the day before assay, Ramos B cells were plated in plating medium (RPMI1640 medium containing 1% FBS and 1× pencillin-streptomycin). On the day of the assay, 2× dye solution was prepared following the manual of the FLIRP Calcium 6 Assay Kit: Dilute the dye with assay buffer (20 mM HEPES in IX HBSS, pH7.4); Add probenecid to the final concentration of 5 mM; vortex vigorously for 1-2 minutes. Cells were collected by centrifuging, and the pellet was re-suspended in plating medium. After counting, cells were re-suspended at a density of 3×10^6/ml in plating medium. Equal volume of 2× dye solution was added to the cell suspension. Cells were then plated at 20 μl/well into a 384-well poly-D-lysine coated plate. Plate was centrifuged at 1000 rpm for 3 minutes and then incubated at 37° C. for 2 hours followed by an additional 15-minute incubation at 25° C. Compounds were prepared at 3× concentration in dilution buffer (20 mM HEPES and 0.1% BSA in 1×HBSS, pH 7.4). Serially diluted compound was transferred from source plate to a 384-well compound plate by using an Echo 550 (Labcyte). 20 μl/well compound dilution buffer was added to the compound plate and mixed on plate shaker for 2 mins. 4× EC80 of Anti-IgM (Jackson ImmunoResearch) was prepared in dilution buffer and 20 μl/well was added to a new 384-well compound plate. After 60 mins of incubation at 25° C. in the dark; cell plate, compound plate containing 4×EC80 of anti-IgM and FLIPR tips were placed into FLIPR (Molecular Devices). 10 ul/well of 4×EC80 anti-IgM was transferred to the cell plate by FLIPR. Plates were read for 160 sec with 1 sec interval.

[4] = plasma, read-out: Mean [plasma]

T1 sequence (Q06187 whole entry): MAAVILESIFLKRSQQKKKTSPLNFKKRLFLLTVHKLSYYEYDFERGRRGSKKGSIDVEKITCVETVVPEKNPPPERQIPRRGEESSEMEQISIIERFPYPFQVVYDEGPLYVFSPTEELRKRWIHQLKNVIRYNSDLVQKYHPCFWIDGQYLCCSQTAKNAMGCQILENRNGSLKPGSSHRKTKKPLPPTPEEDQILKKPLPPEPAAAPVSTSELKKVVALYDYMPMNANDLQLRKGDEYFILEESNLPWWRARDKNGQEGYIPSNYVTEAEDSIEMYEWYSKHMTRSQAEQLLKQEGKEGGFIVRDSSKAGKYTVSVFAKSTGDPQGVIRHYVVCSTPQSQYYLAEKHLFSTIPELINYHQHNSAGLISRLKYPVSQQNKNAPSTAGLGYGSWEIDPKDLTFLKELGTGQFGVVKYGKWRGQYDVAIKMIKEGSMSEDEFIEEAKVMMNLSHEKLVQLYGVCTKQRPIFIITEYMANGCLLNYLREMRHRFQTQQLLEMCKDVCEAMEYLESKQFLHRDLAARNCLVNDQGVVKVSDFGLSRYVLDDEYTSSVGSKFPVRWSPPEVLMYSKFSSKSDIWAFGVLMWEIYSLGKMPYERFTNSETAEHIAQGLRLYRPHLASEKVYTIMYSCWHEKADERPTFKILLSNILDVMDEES

Row | Compound | concentration at 1 h ([1]; brain, read-out: Mean [brain]) [ng/g] | Kp at 1 h [1] | concentration at 1 h [1, 4] [ng/mL] | IC50 [2] [nM] | IC50 ([3]; Homo sapiens, Ramos) [nM] | IC50 [3] [nM]
1 | CC#CC(=O)N1CCC[C@H]1c1nc(-c2ccc(C(=O)Nc3ccccn3)cc2)c2c(N)nccn12 [Acalabrutinib, reference compound] | 4 | 0.04 | 120 | – | – | –
2 | CC#CC(=O)N[C@H]1CCCN(c2c(F)cc(C(N)=O)c3[nH]c(C)c(C)c23)C1 [Branebrutinib, reference compound] | 15 | 0.002 | 6820 | – | – | –
3 | C=CC(=O)N1CCc2c(cccc2-c2c(F)cc(C(N)=O)c3[nH]c4c(c23)CC2(CCOCC2)CC4)C1 [Compound 7-19, 5-(2-acryloyl-1,2,3,4-tetrahydroisoquinolin-5-yl)-6-fluoro-1,2,2′,3′,4,5′,6′,9-octahydrospiro[carbazole-3,4′-pyran]-8-carboxamide] | – | – | – | 10 to 100 | ≥ 100 | –
4 | C=CC(=O)N[C@H]1C[C@H](F)CN(c2c(F)cc(C(N)=O)c3[nH]c4c(c23)CC2(CC4)CC2)C1 [Compound 7-22, 5-((3S,5S)-3-acrylamido-5-fluoropiperidin-1-yl)-6-fluoro-1,2,4,9-tetrahydrospiro[carbazole-3,1′-cyclopropane]-8-carboxamide] | – | – | – | 10 to 100 | 10 to 100 | –
5 | CC#CC(=O)N[C@H]1C[C@H](F)CN(c2c(F)cc(C(N)=O)c3[nH]c4c(c23)CC2(CC4)CC2)C1 [Compound 7-23, 5-((3S,5S)-3-(but-2-ynamido)-5-fluoropiperidin-1-yl)-6-fluoro-1,2,4,9-tetrahydrospiro[carbazole-3,1′-cyclopropane]-8-carboxamide] | – | – | – | < 10 | < 10 | –
6 | C=CC(=O)N1CCc2c(cccc2-c2c(F)cc(C(N)=O)c3[nH]c4c(c23)CC2(CC4)CC2)C1 [Compound 7-24, 5-(2-acryloyl-1,2,3,4-tetrahydroisoquinolin-5-yl)-6-fluoro-1,2,4,9-tetrahydrospiro[carbazole-3,1′-cyclopropane]-8-carboxamide] | – | – | – | < 10 | – | 10 to 100
7 | C=CC(=O)N1CCc2c(cccc2-c2c(F)cc(C(N)=O)c3[nH]c4c(c23)CC2(CC4)CC2)C1 [Compound 7-25, 5-(2-acryloyl-1,2,3,4-tetrahydroisoquinolin-5-yl)-6-fluoro-1,2,4,9-tetrahydrospiro[carbazole-3,1′-cyclopropane]-8-carboxamide] | – | – | – | ≥ 100 | – | ≥ 100
8 | C=CC(=O)N1CCc2c(cccc2-c2c(C)nc(C(N)=O)c3[nH]c4c(c23)CC2(CC4)CC2)C1 [Compound 7-26, 4′-(2-acryloyl-1,2,3,4-tetrahydroisoquinolin-5-yl)-3′-methyl-5′,7′,8′,9′-tetrahydrospiro[cyclopropane-1,6′-pyrido[3,4-b]indole]-1′-carboxamide] | – | – | – | ≥ 100 | ≥ 100 | –
9 | C=CC(=O)N1CCc2c(cccc2-c2cnc(C(N)=O)c3[nH]c4c(c23)CC(F)(F)CC4)C1 [Compound 7-29, 4-(2-acryloyl-1,2,3,4-tetrahydroisoquinolin-5-yl)-6,6-difluoro-6,7,8,9-tetrahydro-5H-pyrido[3,4-b]indole-1-carboxamide] | – | – | – | 10 to 100 | 10 to 100 | –
10 | C=CC(=O)N1CCc2c(cccc2-c2ncc(C(N)=O)c3[nH]c4c(c23)CC2(CC4)CC2)C1 [Compound 7-30, 1′-(2-acryloyl-1,2,3,4-tetrahydroisoquinolin-5-yl)-5′,6′,7′,9′-tetrahydrospiro[cyclopropane-1,8′-pyrido[4,3-b]indole]-4′-carboxamide] | – | – | – | < 10 | 10 to 100 | –
11 | C=CC(=O)N1CCC=C(c2ccc(C(N)=O)c3[nH]c4c(c23)CSCC4)C1 [Compound 8-1, 9-(1-acryloyl-1,2,5,6-tetrahydropyridin-3-yl)-1,3,4,5-tetrahydrothiopyrano-[4,3-b]indole-6-carboxamide] | – | – | – | < 10 | < 10 | –
12 | CC#CC(=O)N[C@H]1CCCN(c2c(F)cc(C(N)=O)c3[nH]c4c(c23)CCN(C)CC4)C1 [Compound 9-5, (S)-10-(3-(but-2-ynamido)piperidin-1-yl)-9-fluoro-3-methyl-1,2,3,4,5,6-hexahydroazepino[4,5-b]indole-7-carboxamide] | – | – | – | < 10 | 10 to 100 | –
13 | C=CC(=O)N1CCc2c(cccc2-c2c(F)cc(C(N)=O)c3[nH]c4c(c23)CCN(C)CC4)C1 [Compound 9-6, 10-(2-acryloyl-1,2,3,4-tetrahydroisoquinolin-5-yl)-9-fluoro-3-methyl-1,2,3,4,5,6-hexahydroazepino[4,5-b]indole-7-carboxamide] | – | – | – | 10 to 100 | 10 to 100 | –
14 | C=CC(=O)N1CCC=C(c2ccc(C(N)=O)c3[nH]c4c(c23)C[Si](C)(C)CC4)C1 [Compound 9-7, 9-(1-acryloyl-1,2,5,6-tetrahydropyridin-3-yl)-2,2-dimethyl-2,3,4,5-tetrahydro-1H-silino[4,3-b]indole-6-carboxamide] | – | – | – | < 10 | 10 to 100 | –
15 | C=CC(=O)N1CCC[C@H](c2c(F)cc(C(N)=O)c3[nH]c4c(c23)CCC4)C1 [Compound 10-1, (R)-8-(1-acryloylpiperidin-3-yl)-7-fluoro-1,2,3,4-tetrahydrocyclopenta[b]-indole-5-carboxamide] | – | – | – | < 10 | < 10 | –
16 | CC#CC(=O)N[C@@H]1C=C(c2c(F)cc(C(N)=O)c3[nH]c4c(c23)CCC4)CCC1 [Compound 10-3, 8-[(3 S)-3-(but-2-ynoylamino)cyclohexen-1-yl]-7-fluoro-1,2,3,4-tetrahydrocyclopenta[b]indole-5-carboxamide] | – | – | – | < 10 | < 10 | –
17 | CC#CC(=O)N[C@H]1CCC=C(c2c(F)cc(C(N)=O)c3[nH]c4c(c23)CCC4)C1 [Compound 10-4, 8-[(5S)-5-(but-2-ynoylamino)cyclohexen-1-yl]-7-fluoro-1,2,3,4-tetrahydrocyclopenta[b]indole-5-carboxamide] | – | – | – | < 10 | < 10 | –
18 | CC#CC(=O)N(C)[C@H]1CCCN(c2c(F)cc(C(N)=O)c3[nH]c4c(c23)CCC4)C1 [Compound 10-7, 8-[(3S)-3-[but-2-ynoyl(methyl)amino]-1-piperidyl]-7-fluoro-1,2,3,4-tetrahydrocyclopenta[b]indole-5-carboxamide] | – | – | – | < 10 | 10 to 100 | –
19 | CC#CC(=O)N[C@H]1C[C@H](F)CN(c2c(F)cc(C(N)=O)c3[nH]c4c(c23)CCC4)C1 [Compound 10-8, 8-((3S,5S)-3-(but-2-ynamido)-5-fluoropiperidin-1-yl)-7-fluoro-1,2,3,4-tetrahydrocyclopenta[b]indole-5-carboxamide] | – | – | – | < 10 | < 10 | –
20 | CC#CC(=O)N[C@H]1C[C@@H](F)CN(c2c(F)cc(C(N)=O)c3[nH]c4c(c23)CCC4)C1 [Compound 10-9, 8-((3S,5R)-3-(but-2-ynamido)-5-fluoro-piperidin-1-yl)-7-fluoro-1,2,3,4-tetrahydrocyclopenta[b]indole-5-carboxamide] | – | – | – | 10 to 100 | 10 to 100 | –
21 | C=CC(=O)N1CCC(CNc2ncnc(N)c2-c2ccc(Oc3ccccc3)cc2)CC1 [Evobrutinib, reference compound] | 11 | 0.06 | 177 | – | – | –
22 | C=CC(=O)N1CCC[C@@H](n2nc(-c3ccc(Oc4ccccc4)cc3)c3c(N)ncnc32)C1 [Ibrutinib, reference compound] | 15 | 0.001 | 306 | – | – | –
